Data set [1] concerns fresh liver and kidney tissue from mice. Kind of data set: In vitro acidification of organelles from fresh tissue. It counts as biochemical. From the text: The in vitro acidification assay used purified microsomes that had been resuspended in a salt buffer without additional cytosolic or nuclear components.
The next data set concerns CHO cells. As to the kind of experiment: Acridine orange labeling of acidic compartments. It counts as cell-based, Chinese Hamster. The conditions noted are these: 10 μM tamoxifen, thirty minutes. The procedure:
Labeling of Cells with Acridine Orange: To examine intracellular acidic compartments, acridine orange (6 μM in medium from a 10 mM stock in water) was added directly to cells in the Lab-Tek chambers and the cells were incubated for 15 minutes. Cells in the presence of acridine orange were then examined utilizing an excitation at 488 nm and dual emission confocal images were simultaneously recorded using both a 530-30 band pass barrier filter (green fluorescence) and a 605 nm long pass barrier filter (red fluorescence). Optical sections of the fluorescent samples were recorded at 0.5 micron intervals with a 60×oil immersion objective.
CHO cells are often used for transfection studies with Pgp since endogenous levels of the protein are non-existent, or too low to be measured [Debenham et al., Mol. Cell Biol., 2:881-889 (1982)].

“Also recorded” adds a separate entry of the source.

With `CC/C(=C(\c1ccccc1)c1ccc(OCCN(C)C)cc1)c1ccccc1` [Tamoxifen], the “effect on in vitro acidification compared with MCF-7/ADR microsomes” value in data set [1] was “similar”. In the data set with CHO cells, the “red acridine orange fluorescence after Tamoxifen” value is on record as “substantially reduced the red acridine orange fluorescence; also recorded: loss of red-orange fluorescence from the cytoplasm of the CHO cells”.

The record behind these values is patent US20020042079A1, “METHODS AND AGENTS FOR MEASURING AND CONTROLLING MULTIDRUG RESISTANCE” (priority 1994, published 2002).
